Reference: patent US9133117B2, “Triple reuptake inhibitors and methods of their use” (SUNOVION PHARMACEUTICALS INC., priority 2008, dated 2015)
Entries after “also recorded” stand apart in the source; their conditions may differ.

Columns and labels:
[1] = system: formalin-induced flinching behavior; experiment: Formalin pain model (flinching behavior); format: in vivo, rat; settings: 60 min before formalin
Experimental: Effects of (3aR,6aS)-3a-(3,4-Dichlorophenyl)octahydrocyclopenta[c]pyrrole on acute and persistent inflammatory pain were evaluated in male rats. Pain was induced experimentally by application of a chemical irritant, formalin, which results in a biphasic behavioral response that includes both early (Phase 1, 0-9 minutes) and late (Phase 2, 10-60 minutes) phase flinching behavior. The early phase response is considered to be the result of C-fiber activation while the late phase appears to be dependent on the combination of an inflammatory response in the tissue and functional changes in the dorsal horn of the spinal cord.
Male rats (Sprague-Dawley, 272-315 g, Harlan) were housed 4 animals per cage in a temperature-controlled environment on a 12-hour light-dark cycle with food and water available ad libitum. Animals were allowed to acclimate to the facility for at least 5 days before testing. On the day of the study, a flexible, light-weight, ‘C’-shaped metal band was applied to one hind paw and the rat was dosed orally (PO, 3 mL/kg, via gavage) or intraperitoneally (IP, 1 mL/kg) with vehicle (50 mM acetate buffer (pH 4.5)), (3aR,6aS)-3a-(3,4-dichlorophenyl)octahydrocyclopenta[c]pyrrole or gabapentin. […] Formalin-induced flinching behavior was recorded for 60 minutes.

[2] = Brain and plasma levels following oral administration; format: in vivo; settings: 10 mg/kg

Clc1ccc([C@@]23CCC[C@@H]2CNC3)cc1Cl [(3aR,6aS)-3a-(3,4-Dichlorophenyl)octahydrocyclopenta[c]pyrrole]
effect on formalin-induced flinching behavior ([1]; male rats, 3, 10 and 30 mg/kg PO, phase I 0-9 min, phase II 10-60 min): significant, dose-related decrease in flinching behavior during phases I and II; also recorded: significantly and dose-dependently attenuated formalin-induced flinching behavior in a non-selective manner

CN1C[C@H]2CCC[C@@]2(c2ccc(Cl)c(Cl)c2)C1 [(3aR,6aS)-3a-(3,4-dichlorophenyl)-2-methyloctahydrocyclopenta[c]pyrrole]
levels of tested compounds in brain (order of lines in FIG. 1) [2]: fourth line | ratio of brain and plasma levels (order of lines in FIG. 2) [2]: fourth line

CN1C[C@H]2CCCC[C@@]2(c2ccc(Cl)c(Cl)c2)C1 [(3aR,7aS)-3a-(3,4-Dichlorophenyl)-2-methyloctahydro-1H-isoindole]
levels of tested compounds in brain (order of lines in FIG. 1) [2]: top line | ratio of brain and plasma levels (order of lines in FIG. 2) [2]: second line

CN1C[C@@H]2CCC[C@]2(c2ccc(Cl)c(Cl)c2)C1 [(3aS,6aR)-3a-(3,4-dichlorophenyl)-2-methyloctahydrocyclopenta[c]pyrrole]
levels of tested compounds in brain (order of lines in FIG. 1) [2]: third line | ratio of brain and plasma levels (order of lines in FIG. 2) [2]: third line

CN1C[C@@H]2CCCC[C@]2(c2ccc(Cl)c(Cl)c2)C1 [(3aS,7aR)-3a-(3,4-Dichlorophenyl)-2-methyloctahydro-1H-isoindole]
levels of tested compounds in brain (order of lines in FIG. 1) [2]: second line | ratio of brain and plasma levels (order of lines in FIG. 2) [2]: top line

NCC1(CC(=O)O)CCCCC1 [Gabapentin, reference compound]
effect on formalin-induced flinching behavior (positive control) ([1]; male rats, 100 mg/kg IP): significant and selective attenuation of phase II formalin-induced flinching behavior
